Tested on: bcl2Mid (DNA, G4) GGGCGCGGGAGGAATTGGGCGGG
Experiment: native PAGE
Settings: K+ (25 mM K-phosphate, 70 mM KCl); samples pH 7.0; gel in TBE pH 8.0; higher-order assemblies at all equivalents

Which binding does the source give for NCCNCCN.NCCNCCN.NCCNCCN.[Pt+2].[Pt+2].[Pt+2].c1cc(-c2ccc(N(c3ccc(-c4ccncc4)cc3)c3ccc(-c4ccncc4)cc3)cc2)ccn1 here?
Its binding is “yes”.

— PMC6115404 (2018)
